{"source": "patent US8663651B2", "about": "“T-140 peptide analogs having CXCR4 super-agonist activity for immunomodulation” (Biokine Therapeutics Ltd., priority 2006, dated 2014)", "type_in_all_cases": "cell-based, human", "key": {"[1]": {"tested_on": "CXCR4", "assay": "CXCR4 silencing by siRNA in PC3-CXCR4.5 cells (RT-PCR and FACS)", "settings": "200 nmol/L siRNA, 48 hours post-transfection", "protocol": "(§1) The Dicer-substrate siRNA duplexes of CXCR4 (NCBI accession number NM 003467): sense 5′-[…]-3′ (SEQ ID NO:78), antisense 5′ […]-3′ (SEQ ID NO:79) were purchased from IDT, Coralville, Iowa. The non-specific siRNA duplexes were used as a control. PC3-CXCR4.5 cells were transfected with 200 nmol/L siRNA in serum-free medium using Oligofectamine reagent (Invitrogen, Carlsbad, Calif., USA), according to the manufacturer's instructions. To determine the efficiency of CXCR4RNA interference, at 48 hours post-transfection, the cells were analyzed for CXCR4 expression on mRNA and cell-surface levels.\nIn FIG. 2A, PC3-CXCR4.5 cells 48 hours following the transfection with CXCR4-specific siRNA were stained for the control and CXCR4 antibodies and evaluated by FACS. Left panel, non-transfected cells; middle panel, cells transfected with a control (non-specific) siRNA; right panel, cells transfected with a siRNA directed to CXCR4 (CXCR4 siRNA). Cells were stained for the control (IgG2a-PE, full histograms) and CXCR4 antibodies (IgG2a-12G5, empty histograms).\nIn FIG. 2B, RT-PCR analysis of CXCR4 of the siRNA-transfected PC3-CXCR4.5 cells 48 hours following the transfection is presented. […] Gene expression was determined using primers specific to CXCR4, or to the housekeeping gene β-actin as a control. […]"}, "[2]": {"tested_on": "PC3-CXCR4.5 cells", "assay": "MIP3α secretion by PC3-CXCR4.5 cells (CXCR4-overexpressing clone), assessed by ELISA", "settings": "for induced MIP3α secretion after silencing of CXCR4 expression: CXCL12 500 ng/ml or 4F-benzoyl-TN14003 8 μM for additional 48 hours", "protocol": "(§2) In this example, regulation of the chemokine MIP3α (macrophage inflammatory protein 3α) was examined. […] In FIG. 1B, PC3 (left panel) and PC3-CXCR4.5 (right panel) cells were stimulated with the indicated concentrations of CXCL12 for 48 hours and MIP3α secretion was assessed by ELISA. The results represent the average of triplicates±STDEV.\n(§3) The effects of the CXCR4 antagonist AMD3100 and of 4F-benzoyl-TN14003 (4FB-TN14003), hitherto known as a CXCR4 antagonist, on MIP3α secretion were further tested. […] In FIG. 1C, CXCR4 signaling in PC3 (left panel) and PC3-CXCR4.5 (right panel) cells was inhibited with anti-CXCL12 antibodies (αCXCL12) and Pertussis toxin (PTX) treatments alone or in combination with CXCL12, as indicated. Secretion of MIP3α was assessed by ELISA. The results represent the average of triplicates±STDEV.\nas §1\nIn FIG. 2C, control (gray) and CXCR4 (black) siRNA-transfected PC3-CXCR4.5 cells at 48 hours post-transfection were incubated with CXCL12 500 ng/ml and 4F-benzoyl-TN14003 8 μM (4FB-TN14003) for additional 48 hours. MIP3α secretion was assessed by ELISA. The results represent the average of triplicates±STDEV."}, "[3]": {"tested_on": "PC3 cells", "assay": "MIP3α secretion by PC3 cells, assessed by ELISA", "protocol": "as §2, §3"}, "[4]": {"tested_on": "normal keratinocytes", "assay": "MIP3α secretion by normal keratinocytes, ELISA", "settings": "following stimulation", "protocol": "(§4) The expression of MIP3α in a range of carcinoma cell lines and normal epithelial cells was tested by ELISA. […] Bone marrow endothelial cells, BMEC, glioblastoma cells U87, breast carcinoma cells MDA231, also were negative for MIP3α secretion. […] In addition, MIP3α was also secreted by normal keratinocytes (FIG. 4D) and primary blasts from peripheral blood of patients with AML (FIG. 4C). In FIG. 4, acute promyelocytic leukemia cell lines NB4 (FIG. 4A) and HL60 (FIG. 4B), primary peripheral blasts from the patient with acute myelocytic leukemia (FIG. 4C) and normal keratinocytes (FIG. 4D) were stimulated with the indicated concentration of CXCL12 for 48 hours. The secretion of MIP3α was assayed by ELISA. The results of experiments with NB4, HL60 and keratinocytes represent the average of triplicates±STDEV. […] Secretion of MIP3α was assessed by ELISA. […] The results represent the average of triplicates±STDEV."}, "[5]": {"tested_on": "HL-60", "assay": "MIP3α secretion by HL-60 cells, ELISA", "settings": "following stimulation", "protocol": "as §4"}, "[6]": {"tested_on": "NB4", "assay": "MIP3α secretion by NB4 cells, ELISA", "settings": "following stimulation", "protocol": "as §4"}, "[7]": {"settings": "CXCR4 siRNA-transfected PC3-CXCR4.5 cells"}}, "note": "Square brackets hold non-standard residues; d marks the D form. * marks the point of attachment. Benzoyl(4-F) = O=C(c1ccc(F)cc1)*; Cit = NC(=O)NCCC[C@H](N)C(=O)O"}
{"molecule": "siRNA specific for CXCR4: Dicer-substrate siRNA duplexes of CXCR4 (SEQ ID NO:78 sense, SEQ ID NO:79 antisense), purchased from IDT (sense UAAAAUCUUCCUGCCCACCAUCUAC; antisense GUAGAUGGUGGGCAGGAAGAUUUUAUU; Dicer-substrate duplex, purchased, chemistry not given here) [reference compound]", "values": [{"measurement": "CXCR4 mRNA and cell surface expression", "setting": "[1]", "value": "reduced CXCR4 mRNA and cell surface expression"}, {"measurement": "spontaneous MIP3α secretion after silencing of CXCR4 expression", "setting": "[2]; [7]", "value": "inhibited the spontaneous"}]}
{"molecule": "4F-benzoyl-Arg-Arg-Nal-Cys-Tyr-Cit-Lys-DLys-Pro-Tyr-Arg-Cit-Cys-Arg-NH2 ({Benzoyl(4-F)}-RR[Nal]CY[Cit]K[dK]PYR[Cit]CR-NH2; cysteine pairing not given here) [4F-benzoyl-TN14003]", "values": [{"measurement": "induction of MIP3α secretion in an agonist manner", "setting": "[3]; PC3 cells", "value": "induced in both cell lines MIP3α secretion in an agonist manner"}, {"measurement": "MIP3α secretion", "setting": "[4]", "value": "increased"}, {"measurement": "MIP3α secretion", "setting": "[5]", "value": "increased"}, {"measurement": "induced MIP3α secretion after silencing of CXCR4 expression", "setting": "[2]; [7]", "value": "inhibited"}, {"measurement": "induction of MIP3α secretion in an agonist manner", "setting": "[2]; PC3-CXCR4.5 cells", "value": "induced in both cell lines MIP3α secretion in an agonist manner"}, {"measurement": "mode of action on CXCR4", "setting": "[2]; concluded from CXCR4-dependent MIP3α secretion in PC3-CXCR4.5 cells", "value": "super agonist for CXCR4"}, {"measurement": "MIP3α secretion", "setting": "[6]", "value": "increased"}]}
{"molecule": "Pertussis toxin [reference compound]", "values": [{"measurement": "MIP3α secretion", "setting": "[3]; PC3 cells, treatment alone or in combination with CXCL12", "value": "effectively inhibited the secretion of MIP3α"}, {"measurement": "MIP3α secretion", "setting": "[2]; PC3-CXCR4.5 cells, in combination with CXCL12", "value": "did not demonstrate an inhibitory effect on the level of MIP3α"}, {"measurement": "MIP3α secretion", "setting": "[2]; PC3-CXCR4.5 cells, treatment alone", "value": "secretion of MIP3α was decreased"}]}
{"molecule": "CXCL12: chemokine, CXCR4's only natural ligand", "values": [{"measurement": "MIP3α secretion", "setting": "[3]; PC3 cells stimulated with increasing doses of CXCL12 for 48 hours", "value": "increased the secretion of MIP3α"}, {"measurement": "MIP3α secretion", "setting": "[4]", "value": "increased"}, {"measurement": "MIP3α secretion", "setting": "[5]", "value": "increased"}, {"measurement": "extent of MIP3α secretion induction compared with 4F-benzoyl-TN14003", "setting": "[2]; CXCR4-expressing cell lines (general statement)", "value": "to a lesser extent than 4F-benzoyl-TN14003"}, {"measurement": "induced MIP3α secretion after silencing of CXCR4 expression", "setting": "[2]; [7]", "value": "inhibited"}, {"measurement": "MIP3α secretion", "setting": "[2]; PC3-CXCR4.5 cells stimulated with increasing doses of CXCL12 for 48 hours", "value": "increased the secretion of MIP3α"}, {"measurement": "MIP3α secretion", "setting": "[6]", "value": "increased"}]}
{"molecule": "c1cc(CN2CCCNCCNCCCNCC2)ccc1CN1CCCNCCNCCCNCC1", "note": "[AMD3100, reference compound]", "values": [{"measurement": "induction of MIP3α secretion in an agonist manner", "setting": "[2]; PC3-CXCR4.5 cells", "value": "but not AMD3100 induced"}]}
